Assays:
IL-17A gene expression = assay: Effect on IL-23-induced cytokine expression in mice; format: in vivo, Balb/c mice; conditions: Mus musculus; dose 10 mg/kg oral, 30 min before and 8 hr after IL-23; versus the negative control group; read-out: Percent inhibition of IL-17A gene expression
Description: Effect on IL-23-induced Cytokine Expression in Mice
A mouse IL-23 solution (500 ng/10 μL, prepared by Takeda Pharmaceutical Company Limited) or PBS (10 μL, negative control group) was administered intradermally in the ear of Balb/c mice (Charles River Japan, male, 7 weeks old). Twenty-four hr after administration, the ear was resected under isoflurane anesthesia. The test compound was suspended in 0.5% methylcellulose and administered orally 30 min before and 8 hr after IL-23 administration.
RNA extraction from the ear tissue and quantitative PCR were performed as follows. Specifically, ear tissue 5 mm in diameter was punched from an area of the resected ear centering on the IL-23 injection site, and the tissue was immersed in RNAlater (QIAGEN) for at least 18 hr. The RNAlater-treated ear tissue was homogenized in 350 μL of RLT buffer (RNeasy mini kit, QIAGEN) and treated (55° C., 10 min) with Proteinase K (QIAGEN). Total RNA was then extracted according to the RNeasy mini kit protocol. The RNA thus obtained was then reverse transcribed into cDNA using the High-Capacity RNA-to-cDNA kit (Applied Biosystems), and the amount of each cytokine expressions was measured by real-time PCR (Viia7™, Applied Biosystems). The PCR buffer used was TaqMan Fast Advanced Master Mix (Applied Biosystems), and TaqMan Gene Expression Assays (Applied Biosystems) Mm00439618 ml (IL-17A) and 4352341E (β-actin) were used for cytokine gene detection. The IL-17A gene expression level was normalized to the R-actin gene expression level, and the percent inhibition of IL-17A gene expression with the test compound was then calculated.
The results obtained with the above-described method (percent inhibition of IL-17A gene expression with oral administration of the test compound) are shown in Table 5.

[1] = system: IL-17 production in human blood; assay: Effect on IL-17 production in human blood; format: cell-based; conditions: 72 h, 10 μM test compound, IL-23 and Dynabeads stimulation, 3 days, read-out: Percent Inhibition at 10 μM (IL-17 production)
Description: Effect on IL-17 Production in Human Blood
The inhibitory effect of the test compound on IL-17 production in human blood was evaluated as follows. First, 150 μL of peripheral blood collected from healthy individuals using heparinized vacuum blood collection tubes was dispensed into each well of a 96-well plate (Corning), and 45 μL of RPMI 1640 medium (Gibco) containing 10% fetal bovine serum (FBS, Hyclone) and 30 μL of the test compound diluted with the medium was added to each well. The plate was then cultured for 30 min at 37° C. Cells were subsequently stimulated by adding 30 μL of 100 ng/mL human IL-23 (R&D) and 45 μL of Dynabeads Human (Invitrogen) to each well and culturing the plate for 3 days at 37° C. In wells without stimulation, 75 μL of RPMI 1640 medium containing 10% FBS was added instead of the IL-23 and Dynabeads solution. After culturing for 3 days, the culture supernatant was collected, and the amount of IL-17 in the supernatant was measured using an IL-17 ELISA kit (R&D).
The results of the above-described measurements (percent inhibition of IL-17 production with 10 μM of the test compound) are shown in Table 4.

[2] = system: mouse model of IL-23-induced psoriasis; assay: Effect in a mouse model of IL-23-induced psoriasis; format: in vivo, Balb/c mice; conditions: dose 30 mg/kg oral twice daily; versus the negative control group
Description: Effect in a Mouse Model of IL-23-induced Psoriasis
Mouse IL-23 (500 ng/15 μL, R&D) or PBS (15 μL, negative control group) was administered intradermally in the ear of Balb/c mice (Charles River Japan, male, 7 weeks old) 5 times every other days. Seven hr after IL-23 administration at 8 days after the initial administration (final administration), the mice were anesthetized with isoflurane, and ear thickness was measured with calipers. After the ear thickness was measured, the ear was resected, tissue 8 mm in diameter was punched from an area centering on the IL-23 injection site, and the tissue was weighed. The punched ear tissue was cut in half, and one half was immersion-fixed in 10% neutral buffer formalin solution for use in histopathological evaluation. The other half was immersed in RNAlater (QIAGEN) for at least 18 hr for use in an evaluation of the IL-17A mRNA expression level. The test compound was suspended in 0.5% methylcellulose and administered orally twice daily on consecutive days from 30 min before the initial IL-23 administration to 30 min before the final IL-23 administration.
The change in ear thickness in this model was evaluated by calculating the difference in measured thickness between before IL-23 administration and 7 hr after the final IL-23 administration. In addition, the formalin-fixed tissue was embedded and sectioned, then stained with hematoxylin-eosin. The degree of acanthosis was then evaluated qualitatively by microscopy (classified with a score of 0 to 4). RNA extraction from the ear tissue and quantitative PCR were performed as follows. […] The RNA thus obtained was reverse transcribed into cDNA using the High-Capacity RNA-to-cDNA kit (Applied Biosystems), and the expression of each gene was measured by real-time PCR (Viia7™, Applied Biosystems). […] The IL-17A gene expression level was normalized to the R-actin gene expression level, and the percent inhibition of IL-17A gene expression with the test compound was then calculated. […]

For `COc1ccc2c(n1)CCN(C(=O)CCCC(=O)O)[C@H]2C(=O)Nc1cc(F)c2c(c1)CCC2(C)C` [Example 118, 5-((5R)-5-((7-fluoro-1,1-dimethyl-2,3-dihydro-1H-inden-5-yl)carbamoyl)-2-methoxy-7,8-dihydro-1,6-naphthyridin-6(5H)-yl)-5-oxopentanoic acid], the inhibition in vivo at 10 mg/kg (IL-17A gene expression) was 87%, the inhibition at 10 µM [1] was 88% and the “Percent Inhibition of Acanthosis Score” value [2] was 80%. For the same compound, the “Percent Inhibition of Ear Thickness” value [2] was 61% and the “Percent Inhibition of IL-17A Expression” value [2] was 111%.

Reference: US10053468B2, “Heterocyclic compound” (TAKEDA PHARMACEUTICAL COMPANY LIMITED, priority 2013, dated 2018)
